# Source: patent publication US20080131432A1, “Method of treating the chemotoxic effects of chemotherapeutic drugs on brain tissue” (University of Kentucky Research Foundation, priority 2005, published 2008)
# Entries after “also recorded” stand apart in the source; their conditions may differ. Counter-ions that a name gives are not always drawn.
# Key:
# [1] = in vivo; cited from earlier work
# TNF α = TNF α levels in serum (mouse TNF-α ELISA); format: in vivo
# Experimental: Mice were treated with 20 mg/kg ADR or saline as control. Blood samples were collected at 1, 3, 6, 9, 24 hours and allowed to clot at 2-8° C. overnight. Serum samples were used to measure TNF α levels, according to the mouse enzyme-linked immunosorbent assay following the manufacturers' instructions (mouse TNF-α/TNFSF1A immunoassay, R&D Systems, Minneapolis, MN). The TNF α concentration in the sample was calculated from a recombinant mouse TNF α standard curve. The minimum detection limit is typically less than 5.1 pg/mL.
# 8-week-old male B6C3 mice (25-30 g) were kept under standard conditions. Mice were injected with a single intraperitoneal (i.p.) treatment with adriamycin (doxorubicin hydrochloride, 20 mg/kg), TNF-α, anti-mouse TNF-antibody (40 ng/kg), dipropylenetriamine NONOate (DPTA NONOate, […]), lipopolysaccharide (LPS 1 mg/kg), NG-nitro-L-arginine-methyl esther (L-NAME, 10 mg/kg) or pre-immune IgG.
# Mice were treated with 20 mg/kg ADR, TNF-α, anti-mouse TNF-antibody, dipropylenetriamine NONOate, lipopolysaccharide, NG-nitro-L-arginine-methyl esther or pre-immune IgG, as well as saline as control. Blood samples were collected at 3 hours after ADR treatment and allowed to clot at 2-8° C. overnight. Serum samples were used to measure TNF levels, according to the mouse enzyme-linked immunosorbent assay following the manufacturers' instructions (mouse TNF-α/TNFSF1A immunoassay, R&D Systems, Minneapolis, Minn.). The TNF concentration in the sample was calculated from a recombinant mouse TNF standard curve. The minimum detection limit is typically less than 5.1 pg/mL.
smiles,measurement,setting,value
"COc1cccc2c1C(=O)c1c(O)c3c(c(O)c1C2=O)C[C@@](O)(C(=O)CO)C[C@@H]3O[C@H]1C[C@H](N)[C@H](O)[C@H](C)O1 [ADR, Doxorubicin hydrochloride]",Crossing of the blood brain barrier,[1],does not cross the blood brain barrier
same,Time course of increased serum TNF α,"TNF α; 20 mg/kg ADR, blood at 1, 3, 6, 9, 24 hours, hydrochloride",detectable as early as 1 hour and were sustained throughout a 24 hour period; also recorded: increased at the earliest time point examined
same,TNF-α level in serum (circulating TNF-α),"TNF α; iNOSKO mice, 3 hours after treatment",significantly elevated
same,TNF α level in serum (circulating TNF α),"TNF α; wild-type mice, 3 hours after single i.p. treatment, vs saline control, hydrochloride",significantly higher; also recorded: significantly elevated
